According to patent US12077503B2, “Substituted cyclic amides and their use as herbicides” (FMC CORPORATION, priority 2015, dated 2024):

Assays:
Type in all cases: in vivo
rice (Oryra sativa) = experiment: Test B flooded paddy test; conditions: Flood, 0 to 100 scale where 0 is no effect and 100 is complete control, 13 to 15 d
In short: (§1)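 Evaluation by eye, against controls, occurred 13–15 d post-treatment in a greenhouse, using a 0 (no effect) to 100 (complete control) scale. Application was into the paddy water, 3 cm deep over the soil, on 2-leaf plants.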

[1] = system: ducksalad (Heteranthera limosa); experiment: Test B flooded paddy test; conditions: Flood, 0 to 100 scale where 0 is no effect and 100 is complete control, 13 to 15 d
In short: as §1

[2] = system: barnyardgrass (Echinochloa crus-galli); experiment: Test B flooded paddy test; conditions: Flood, 0 to 100 scale where 0 is no effect and 100 is complete control, 13 to 15 d
In short: as §1

[3] = system: sedge, umbrella (small-flower umbrella sedge, Cyperus difformis); experiment: Test B flooded paddy test; conditions: Flood, 0 to 100 scale where 0 is no effect and 100 is complete control, 13 to 15 d
In short: as §1

Kochia (Kochia scoparia) [4] = experiment: Test A preemergence
In short: (§2)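 Seeds sprayed preemergence with a directed soil spray, or plants at 2 to 10 cm height and one- to two-leaf stage sprayed postemergence, with test chemicals in a non-phytotoxic solvent mixture containing surfactant, in loam soil–sand blend. Injury rated visually against untreated controls after about 10 d in greenhouse, 0 (no effect) to 100 (complete control).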

[5] = system: giant foxtail (Setaria faberii); experiment: Test A preemergence
In short: as §2

[6] = system: barnyardgrass (Echinochloa crus-galli); experiment: Test A preemergence
In short: as §2

[7] = system: pigweed (Amaranthus retroflexus); experiment: Test A preemergence
[8] = system: ragweed (common ragweed, Ambrosia elatior); experiment: Test A preemergence
In short: as §2

[9] = system: ryegrass, Italian (Italian ryegrass, Lolium multiflorum); experiment: Test A preemergence
In short: as §2

[10] = system: Galium (catchweed bedstraw, Galium aparine); experiment: Test A postemergence
In short: as §2

Kochia (Kochia scoparia) [11] = experiment: Test A postemergence
In short: as §2

[12] = system: wheat (Triticum aestivum); experiment: Test A postemergence
In short: as §2

[13] = system: giant foxtail (Setaria faberii); experiment: Test A postemergence
In short: as §2

corn (Zea mays) = experiment: Test A postemergence
In short: as §2

[14] = system: barnyardgrass (Echinochloa crus-galli); experiment: Test A postemergence
In short: as §2

[15] = system: blackgrass (Alopecurus myosuroides); experiment: Test A postemergence
In short: as §2

[16] = system: pigweed (Amaranthus retroflexus); experiment: Test A postemergence
In short: as §2

[17] = system: ragweed (common ragweed, Ambrosia elatior); experiment: Test A postemergence
In short: as §2

[18] = system: ryegrass, Italian (Italian ryegrass, Lolium multiflorum); experiment: Test A postemergence
In short: as §2

[19] = 125 g ai/ha, Preemergence, visual injury after approximately 10 d, 0 to 100 scale where 0 is no effect and 100 is complete control
[20] = Preemergence, 500 g ai/ha, visual injury approx. 10 d
[21] = 125 g ai/ha, postemergence, visual rating after approx. 10 d, 0 to 100 scale (0 no effect, 100 complete control)
[22] = Postemergence, 500 g ai/ha, 0 to 100 scale where 0 is no effect and 100 is complete control
[23] = 500 g ai/ha, preemergence, 0 to 100 scale, 0 = no effect, 100 = complete control
[24] = 500 g ai/ha, postemergence, visual injury, 0 to 100 scale (0 no effect, 100 complete control), approx. 10 d

Row | Structure (SMILES) | Plant response rating, Rice (rice (Oryra sativa); 250 g ai/ha) | Plant response rating, Ducksalad ([1]; 250 g ai/ha) | Plant response rating, Barnyardgrass ([2]; 250 g ai/ha) | Plant response rating, Sedge, Umbrella ([3]; 250 g ai/ha) | Plant response rating, Kochia (Kochia (Kochia scoparia) [4]; [19]) | Plant response rating, Foxtail, Giant [5, 19] | Plant response rating, Barnyardgrass [6, 19] | Plant response rating, Pigweed [7, 19] | Plant response rating, Ragweed [8, 19] | Plant response rating, Ryegrass, Italian [9, 19] | Plant response rating, Galium [10, 21] | Plant response rating, Kochia (Kochia (Kochia scoparia) [11]; [21]) | Plant response rating, Wheat [12, 21] | Plant response rating, Foxtail, Giant [13, 21] | Plant response rating, Corn (corn (Zea mays); [21]) | Plant response rating, Barnyardgrass [14, 21] | Plant response rating, Blackgrass [15, 21] | Plant response rating, Pigweed [16, 21] | Plant response rating, Ragweed [17, 21] | Plant response rating, Ryegrass, Italian [18, 21] | other results
1 | O=C1NCC(c2cc(F)c(F)cc2F)C1C(=O)Nc1ccc(F)cc1F (racemic) [Compound 551] | 15 | 85 | 20 | 0 | 0 | 80 | 30 | 0 | 0 | 0 | 0 | 0 | 0 | 50 | 0 | 10 | 0 | 0 | 0 | 0 | Kochia plant response rating (0 to 100 scale, 0 is no effect, 100 is complete control) (Kochia (Kochia scoparia) [4]; [20]): 0; Foxtail, Giant plant response rating (0 to 100 scale, 0 is no effect, 100 is complete control) [5, 20]: 90; Barnyardgrass plant response rating (0 to 100 scale, 0 is no effect, 100 is complete control) [6, 20]: 90; Pigweed plant response rating (0 to 100 scale, 0 is no effect, 100 is complete control) [7, 20]: 0; Ragweed plant response rating (0 to 100 scale, 0 is no effect, 100 is complete control) [8, 20]: 0; Ryegrass, Italian plant response rating (0 to 100 scale, 0 is no effect, 100 is complete control) [9, 20]: 0; Plant response rating, Galium [10, 22]: 0; Plant response rating, Kochia (Kochia (Kochia scoparia) [11]; [22]): 0; Plant response rating, Wheat [12, 22]: 0; Plant response rating, Foxtail, Giant [13, 22]: 80; Plant response rating, Corn (corn (Zea mays); [22]): 0; Plant response rating, Barnyardgrass [14, 22]: 80; Plant response rating, Blackgrass [15, 22]: 0; Plant response rating, Pigweed [16, 22]: 0; Plant response rating, Ragweed [17, 22]: 0; Plant response rating, Ryegrass, Italian [18, 22]: 0
2 | COc1cccc(NC(=O)C2C(=O)NCC2c2cccc(C(F)(F)F)c2)c1F (racemic) [Compound 674] |  |  |  |  | 0 | 70 | 60 | 0 | 0 | 0 | 0 | 0 | 0 | 30 | 0 | 30 | 0 | 0 | 0 | 0 | Plant response rating, Rice (rice (Oryra sativa); 500 g ai/ha): 20; Plant response rating, Ducksalad ([1]; 500 g ai/ha): 65; Plant response rating, Barnyardgrass ([2]; 500 g ai/ha): 60; Plant response rating, Sedge, Umbrella ([3]; 500 g ai/ha): 0; Plant response rating, Kochia (Kochia (Kochia scoparia) [4]; [23]): 30; Plant response rating, Foxtail, Giant [5, 23]: 90; Plant response rating, Barnyardgrass [6, 23]: 80; Plant response rating, Pigweed [7, 23]: 0; Plant response rating, Ragweed [8, 23]: 0; Plant response rating, Ryegrass, Italian [9, 23]: 0; Plant response rating, Galium [10, 24]: 0; Plant response rating, Kochia (Kochia (Kochia scoparia) [11]; [24]): 0; Plant response rating, Wheat [12, 24]: 0; Plant response rating, Foxtail, Giant [13, 24]: 80; Plant response rating, Corn (corn (Zea mays); [24]): 0; Plant response rating, Barnyardgrass [14, 24]: 70; Plant response rating, Blackgrass [15, 24]: 0; Plant response rating, Pigweed [16, 24]: 0; Plant response rating, Ragweed [17, 24]: 0; Plant response rating, Ryegrass, Italian [18, 24]: 0
3 | Cc1ccc(C2CNC(=O)C2C(=O)Nc2ccccc2F)cc1C(F)(F)F (racemic) [Compound 678] | 10 | 75 | 40 | 0 | 0 | 80 | 90 | 0 | 0 | 0 | 0 | 0 | 0 | 20 | 10 | 70 | 30 | 0 | 0 | 0 | Plant response rating, Kochia (Kochia (Kochia scoparia) [4]; [23]): 30; Plant response rating, Foxtail, Giant [5, 23]: 90; Plant response rating, Barnyardgrass [6, 23]: 90; Plant response rating, Pigweed [7, 23]: 0; Plant response rating, Ragweed [8, 23]: 0; Plant response rating, Ryegrass, Italian [9, 23]: 20; Plant response rating, Galium [10, 24]: 30; Plant response rating, Kochia (Kochia (Kochia scoparia) [11]; [24]): 0; Plant response rating, Wheat [12, 24]: 20; Plant response rating, Foxtail, Giant [13, 24]: 60; Plant response rating, Corn (corn (Zea mays); [24]): 30; Plant response rating, Barnyardgrass [14, 24]: 80; Plant response rating, Blackgrass [15, 24]: 60; Plant response rating, Pigweed [16, 24]: 0; Plant response rating, Ragweed [17, 24]: 0; Plant response rating, Ryegrass, Italian [18, 24]: 20
4 | Cc1ccc(C2CNC(=O)C2C(=O)Nc2cccc(F)c2F)cc1C(F)(F)F (racemic) [Compound 679] | 0 | 55 | 30 | 0 | 30 | 90 | 80 | 0 | 0 | 20 | 40 | 0 | 0 | 0 | 20 | 40 | 30 | 0 | 0 | 0 | Plant response rating, Kochia (Kochia (Kochia scoparia) [4]; [23]): 60; Plant response rating, Foxtail, Giant [5, 23]: 90; Plant response rating, Barnyardgrass [6, 23]: 90; Plant response rating, Pigweed [7, 23]: 40; Plant response rating, Ragweed [8, 23]: 30; Plant response rating, Ryegrass, Italian [9, 23]: 30; Plant response rating, Galium [10, 24]: 60; Plant response rating, Kochia (Kochia (Kochia scoparia) [11]; [24]): 0; Plant response rating, Wheat [12, 24]: 20; Plant response rating, Foxtail, Giant [13, 24]: 30; Plant response rating, Corn (corn (Zea mays); [24]): 50; Plant response rating, Barnyardgrass [14, 24]: 70; Plant response rating, Blackgrass [15, 24]: 60; Plant response rating, Pigweed [16, 24]: 40; Plant response rating, Ragweed [17, 24]: 20; Plant response rating, Ryegrass, Italian [18, 24]: 20
5 | Cc1ccc(C2CNC(=O)C2C(=O)Nc2ccc(F)c(F)c2F)cc1C(F)(F)F (racemic) [Compound 681] | 0 | 25 | 35 | 0 | 20 | 90 | 70 | 0 | 0 | 0 | 30 | 0 | 0 | 0 | 0 | 40 | 0 | 0 | 0 | 0 | Plant response rating, Kochia (Kochia (Kochia scoparia) [4]; [23]): 60; Plant response rating, Foxtail, Giant [5, 23]: 90; Plant response rating, Barnyardgrass [6, 23]: 80; Plant response rating, Pigweed [7, 23]: 30; Plant response rating, Ragweed [8, 23]: 0; Plant response rating, Ryegrass, Italian [9, 23]: 30; Plant response rating, Galium [10, 24]: 50; Plant response rating, Kochia (Kochia (Kochia scoparia) [11]; [24]): 40; Plant response rating, Wheat [12, 24]: 0; Plant response rating, Foxtail, Giant [13, 24]: 30; Plant response rating, Corn (corn (Zea mays); [24]): 30; Plant response rating, Barnyardgrass [14, 24]: 90; Plant response rating, Blackgrass [15, 24]: 30; Plant response rating, Pigweed [16, 24]: 0; Plant response rating, Ragweed [17, 24]: 0; Plant response rating, Ryegrass, Italian [18, 24]: 20
